From patent US20070287699A1, “ANTIVIRAL AGENTS” (ViroBay, Inc., priority 2006, published 2007)

System: HCV replicon RNA replication in human Huh7 hepatoma cells
Experiment: HCV replicon assay (activity levels from either or both of HCV replicon assay 1, Huh7/Clone A RT-qPCR, and assay 2, Huh7 ET luc-ubi-neo/ET)
Format: cell-based, Hepatitis C virus (HCV)
Conditions: Hepatitis C virus, Huh-7, either or both HCV replicon assays: Huh7/Clone A, 48 hours, 72 hours, Luc activity or RT-PCR, read-out: inhibit HCV replication at IC50 levels or estimated IC50 levels
In short: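 Huh7/Clone A subgenomic replicon cells treated 48 h at 37° C. with 7 serial dilutions in triplicate (0.5% DMSO final). Replicon RNA measured by TaqMan RT-qPCR on the neo gene, normalized to RiboGreen total RNA; untreated cells set as 100% for IC50.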

SMILES	IC50
C[C@@H](c1ccccc1)n1cc(-c2noc(C(C)(C)c3ccccc3)n2)c(=O)c2cc(F)c(N3CCOCC3)cc21 [Compound 143, (S)-6-fluoro-7-morpholino-1-(1-phenylethyl)-3-(5-(2-phenylpropan-2-yl)-1,2,4-oxadiazol-3-yl)quinolin-4(1H)-one]	> 10 µM
CC(C)(c1ccccc1)c1nc(-c2cn(C(C)(C)c3ccccc3)c3cc(N4CCOCC4)c(F)cc3c2=O)no1 [Compound 144, 6-fluoro-7-morpholino-1-(2-phenylpropan-2-yl)-3-(5-(2-phenylpropan-2-yl)-1,2,4-oxadiazol-3-yl)quinolin-4(1H)-one]	> 10 µM
C[C@H](c1ccccc1)n1cc(-c2noc(C(C)(C)c3ccccc3)n2)c(=O)c2cc(F)c(N3CCOCC3)cc21 [Compound 145, (R)-6-fluoro-7-morpholino-1-(1-phenylethyl)-3-(5-(2-phenylpropan-2-yl)-1,2,4-oxadiazol-3-yl)quinolin-4(1H)-one]	> 10 µM
CC(C)(c1ccccc1)c1nc(-c2cn(Cc3ccc(C(F)(F)F)cc3)c3cc(N4CCOCC4)c(F)cc3c2=O)no1 [Compound 146, 6-fluoro-7-morpholino-3-(5-(2-phenylpropan-2-yl)-1,2,4-oxadiazol-3-yl)-1-(4-(trifluoromethyl)benzyl)quinolin-4(1H)-one]	< 0.5 µM
CC(C)(c1ccc(F)cc1)c1nc(-c2cn(Cc3ccc(F)cc3)c3cc(N4CCS(=O)(=O)CC4)c(F)cc3c2=O)no1 [Compound 151, 7-(1,1-dioxo-thiomorpholine)-6-fluoro-3-(5-(2-(4-fluorophenyl)propan-2-yl)-1,2,4-oxadiazol-3-yl)-1-(4-(fluoro)benzyl)quinolin-4(1H)-one]	< 10 µM
CN(C)c1cc2c(cc1F)c(=O)c(-c1noc(C(C)(C)c3ccccc3)n1)cn2Cc1ccc(C(F)(F)F)cc1 [Compound 152, 7-(dimethylamino)-6-fluoro-3-(5-(2-phenylpropan-2-yl)-1,2,4-oxadiazol-3-yl)-1-(4-(trifluoromethyl)benzyl)quinolin-4(1H)-one]	< 0.5 µM
CN(C)c1cc2c(cc1F)c(=O)c(-c1noc(C(C)(C)c3ccc(F)cc3)n1)cn2Cc1ccc(C(F)(F)F)cc1 [Compound 153, 7-(dimethylamino)-6-fluoro-3-(5-(2-(4-fluorophenyl)propan-2-yl)-1,2,4-oxadiazol-3-yl)-1-(4-(trifluoromethyl)benzyl)quinolin-4(1H)-one]	< 2 µM
CN(C)c1cc2c(cc1F)c(=O)c(-c1noc(C(C)(C)c3ccccc3)n1)cn2Cc1ccc(F)cc1 [Compound 154, 7-(dimethylamino)-6-fluoro-1-(4-fluorobenzyl)-3-(5-(2-phenylpropan-2-yl)-1,2,4-oxadiazol-3-yl)quinolin-4(1H)-one]	< 2 µM
CC(C)(c1ccc(F)cc1)c1nc(-c2cn(Cc3ccc(F)cc3)c3cc(F)c(F)cc3c2=O)no1 [Compound 155, 6,7-difluoro-1-(4-fluorobenzyl)-3-(5-(2-(4-fluorophenyl)propan-2-yl)-1,2,4-oxadiazol-3-yl)quinolin-4(1H)-one]	> 10 µM
CC(C)(c1ccc(F)cc1)c1nc(-c2cn(Cc3ccc(F)cc3)c3ccccc3c2=O)no1 [Compound 156, 1-(4-fluorobenzyl)-3-(5-(2-(4-fluorophenyl)propan-2-yl)-1,2,4-oxadiazol-3-yl)quinolin-4(1H)-one]	> 10 µM
CC(C)(c1ccc(F)cc1)c1nnc(-c2cn(Cc3ccc(C(F)(F)F)cc3)c3cc(N4CCOCC4)c(F)cc3c2=O)o1 [Compound 161, 6-fluoro-3-(5-(2-(4-fluorophenyl)propan-2-yl)-1,3,4-oxadiazol-2-yl)-7-morpholino-1-(4-(trifluoromethyl)benzyl)quinolin-4(1H)-one]	< 2 µM
COc1cc2c(=O)c(-c3nnc(Cc4ccc(Cl)cc4)o3)cn(Cc3ccc(Cl)cc3)c2cc1OC [Compound 162, 1-(4-chloro-benzyl)-3-[5-(4-chloro-benzyl)-[1,3,4]oxadiazol-2-yl]-6,7-dimethoxy-1H-quinolin-4-one]	> 10 µM
COc1cc2c(=O)c(-c3nnc(Cc4ccc(Cl)cc4)o3)cn(CC3CCCCC3)c2cc1OC [Compound 163, 3-[5-(4-chloro-benzyl)-[1,3,4]oxadiazol-2-yl]-1-cyclohexylmethyl-6,7-dimethoxy-1H-quinolin-4-one]	> 10 µM
CN1CCN(c2cc3c(cc2F)c(=O)c(-c2nnc(Cc4ccccc4)o2)cn3Cc2ccc(Cl)cc2)CC1 [Compound 164, 3-(5-benzyl-[1,3,4]oxadiazol-2-yl)-1-(4-chloro-benzyl)-6-fluoro-7-(4-methyl-piperazin-1-yl)-1H-quinolin-4-one]	< 10 µM
CN1CCN(c2cc3c(cc2F)c(=O)c(-c2nnc(Cc4ccccc4)o2)cn3Cc2ccc(C(F)(F)F)cc2F)CC1 [Compound 165, 3-(5-benzyl-[1,3,4]oxadiazol-2-yl)-1-(4-(2-fluoro-4-trifluormethyl)-benzyl)-6-fluoro-7-(4-methyl-piperazin-1-yl)-1H-quinolin-4-one]	< 2 µM
CC(C)(c1ccccc1)c1nnc(-c2cn(Cc3ccc(C(F)(F)F)cc3)c3cc(N4CCOCC4)c(F)cc3c2=O)o1 [Compound 167, 6-fluoro-7-morpholino-3-(5-(2-phenylpropan-2-yl)-1,3,4-oxadiazol-2-yl)-1-(4-(trifluoromethyl)benzyl)quinolin-4(1H)-one]	< 2 µM
COc1cc2c(=O)c(-c3nc(Cc4ccccc4)no3)cn(Cc3ccc(Cl)cc3)c2cc1OC [Compound 169, 3-(3-benzyl-[1,2,4]oxadiazol-5-yl)-1-(4-chloro-benzyl)-6,7-dimethoxy-1H-quinolin-4-one]	> 10 µM
COc1cc2c(=O)c(-c3nc(Cc4ccccc4)no3)cn(CC3CCCCC3)c2cc1OC [Compound 170, 3-(3-benzyl-[1,2,4]oxadiazol-5-yl)-1-cyclohexylmethyl-6,7-dimethoxy-1H-quinolin-4-one]	> 10 µM
CC(C)(c1ccccc1)c1noc(-c2cn(Cc3ccc(C(F)(F)F)cc3)c3cc(N4CCOCC4)c(F)cc3c2=O)n1 [Compound 171, 6-fluoro-7-morpholino-3-(3-(2-phenylpropan-2-yl)-1,2,4-oxadiazol-5-yl)-1-(4-(trifluoromethyl)benzyl)quinolin-4(1H)-one]	> 10 µM
O=c1c(-c2nc(Cc3ccc(F)cc3)no2)cn(Cc2ccc(C(F)(F)F)cc2)c2cc(N3CCOCC3)c(F)cc12 [Compound 172, 6-fluoro-3-(3-(4-fluorobenzyl)-1,2,4-oxadiazol-5-yl)-7-morpholino-1-(4-(trifluoromethyl)benzyl)quinolin-4(1H)-one]	> 10 µM
CC(C)(c1ccc(F)cc1)c1noc(-c2cn(Cc3ccc(C(F)(F)F)cc3)c3cc(N4CCOCC4)c(F)cc3c2=O)n1 [Compound 173, 6-fluoro-3-(3-(2-(4-fluorophenyl)propan-2-yl)-1,2,4-oxadiazol-5-yl)-7-morpholino-1-(4-(trifluoromethyl)benzyl)quinolin-4(1H)-one]	> 10 µM
O=c1c(-c2ncc(Cc3ccccc3)o2)cn(Cc2ccc(Cl)cc2)c2ccc(OCCCN3CCOCC3)cc12 [Compound 176, 3-(5-benzyl-oxazol-2-yl)-1-(4-chloro-benzyl)-6-(3-morpholin-4-yl-propoxy)-1H-quinolin-4-one]	< 10 µM
O=c1c(-c2noc(Cc3ccc(Cl)cc3)n2)cn(Cc2ccc(C(F)(F)F)cc2F)c2c1CNCC2 [Compound 178, 3-[5-(4-chloro-benzyl)-[1,2,4]oxadiazol-3-yl]-1-(2-fluoro-4-trifluoromethyl-benzyl)-5,6,7,8-tetrahydro-1H-[1,6]naphthyridin-4-one]	< 10 µM
